Test results published in ChEMBL document CHEMBL3046435, “Isolation and identification of insecticidal components from Citrus aurantium fruit peel extract” (2008).
Activity calls are given as the source filed them. No cut-off for these calls is given here.

Columns and labels:
Bactrocera oleae [1] = assay: Insecticidal activity against Bactrocera oleae exposed to 1.12 ug/cm2 compound for 12 hr assessed as insect mortality measured 72 hr post dose by petri dish exposure bioassay (reference value: 2 +/- 2%); assay type: functional
Bactrocera oleae [2] = assay: Insecticidal activity against Bactrocera oleae exposed to 0.45 ug/cm2 compound for 12 hr assessed as insect mortality measured 72 hr post dose by petri dish exposure bioassay (reference value: 2 +/- 2%); assay type: functional, organism-based
Bactrocera oleae [3] = assay: Insecticidal activity against Bactrocera oleae exposed to compound for 12 hr assessed as insect mortality measured 72 hr post dose by petri dish exposure bioassay (reference value: 2 +/- 2%); assay type: functional, organism-based

C/C(=C\COc1c2ccoc2cc2oc(=O)ccc12)CCC1OC1(C)C (centres undefined) [6',7'-EPOXYBERGAMOTTIN]
mortality (Bactrocera oleae [1]): 48%

COc1ccc2ccc(=O)oc2c1CC=C(C)C
Activity (Bactrocera oleae [2]): inactive

COc1c2ccoc2cc2oc(=O)ccc12
Activity (Bactrocera oleae [2]): inactive | Activity (Bactrocera oleae [3]): inactive
